The text below walks through data of patent US8680275B2, “Fused heterocyclic compounds as orexin receptor modulators” (Janssen Pharmaceutica NV, priority 2009, dated 2014).

One experiment addresses human orexin 1 receptor (Homo sapiens (Human), UniProt O43613). Put plainly: Human orexin 1 receptor radioligand binding ([3H]-SB674042 competition). To be noted: CHO cells stably expressing human orexin 1 receptor; [3H]-SB674042 4 nM final; read-out: OR-1 Ki. Put shortly:
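CHO cells stably expressing human OX1R incubated 60 min at room temperature with [3H]-SB674042 and compounds (7 concentrations, 0.1 nM–10 μM; DMSO ≤0.1%) in PBS. Nonspecific binding defined with 10 μM of a reference urea antagonist; bound radioactivity measured by filtration and scintillation counting.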

Another experiment addresses human orexin-2 receptor (Homo sapiens (Human), UniProt O43614). Put plainly: Human orexin 2 receptor radioligand binding ([3H]-EMPA competition). To be noted: HEK293 cells stably expressing human orexin-2 receptor; [3H]-EMPA 5 nM final; read-out: OR-2 Ki. Put shortly: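 Competition binding on HEK293 cells stably expressing human orexin-2 receptor, using 5 nM final [3H]-EMPA in PBS, compounds 0.1 nM to 10 μM (DMSO ≤0.1%). 60 min at room temperature, then filtration and scintillation counting; nonspecific binding defined with 10 μM of a reference antagonist.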

As a reminder, the Ki is the dissociation constant of the complex between target and ligand, obtained from inhibition or displacement.

Chain of human orexin 1 receptor (O43613 whole entry): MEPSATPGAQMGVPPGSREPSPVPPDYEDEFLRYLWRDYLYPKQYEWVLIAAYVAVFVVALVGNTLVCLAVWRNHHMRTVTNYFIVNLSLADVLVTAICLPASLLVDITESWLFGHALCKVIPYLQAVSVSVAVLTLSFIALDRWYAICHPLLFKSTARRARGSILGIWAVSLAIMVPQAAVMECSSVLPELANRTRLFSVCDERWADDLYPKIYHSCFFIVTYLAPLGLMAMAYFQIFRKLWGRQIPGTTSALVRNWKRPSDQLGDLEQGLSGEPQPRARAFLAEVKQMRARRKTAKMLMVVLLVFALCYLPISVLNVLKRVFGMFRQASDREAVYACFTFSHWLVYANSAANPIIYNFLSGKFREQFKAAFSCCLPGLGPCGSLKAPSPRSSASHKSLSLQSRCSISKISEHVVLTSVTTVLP
Chain of human orexin-2 receptor (O43614 whole entry): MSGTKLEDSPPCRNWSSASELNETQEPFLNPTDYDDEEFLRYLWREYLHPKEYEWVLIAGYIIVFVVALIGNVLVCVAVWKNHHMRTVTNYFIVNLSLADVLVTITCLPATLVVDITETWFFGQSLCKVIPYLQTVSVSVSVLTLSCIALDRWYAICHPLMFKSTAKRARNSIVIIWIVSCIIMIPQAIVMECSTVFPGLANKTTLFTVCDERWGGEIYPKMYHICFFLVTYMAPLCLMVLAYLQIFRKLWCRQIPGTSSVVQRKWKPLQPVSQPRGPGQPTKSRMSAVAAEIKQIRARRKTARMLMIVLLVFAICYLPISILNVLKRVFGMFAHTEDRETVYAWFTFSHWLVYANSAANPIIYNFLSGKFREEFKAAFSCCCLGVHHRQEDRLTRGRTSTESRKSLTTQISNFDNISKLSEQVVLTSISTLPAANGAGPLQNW

`COc1ccc(C(=O)N2CC[C@H]3CN(c4nc(C)cc(C)n4)[C@H]3C2)c(-n2nccn2)n1` [Example 162, (1R,6S)-8-(4,6-Dimethylpyrimidin-2-yl)-3-{[6-methoxy-2-(2H-1,2,3-triazol-2-yl)pyridin-3-yl]carbonyl}-3,8-diazabicyclo[4.2.0]octane]: the Ki on human orexin 1 receptor was 10 µM; at human orexin-2 receptor it was 0.38 µM.

`COc1ccc(C(=O)N2CC[C@H]3CN(c4nc(C)cc(C)n4)[C@H]3C2)c(-n2ccnn2)n1` [Example 163, (1R,6S)-8-(4,6-Dimethylpyrimidin-2-yl)-3-{[6-methoxy-2-(1H-1,2,3-triazol-1-yl)pyridin-3-yl]carbonyl}-3,8-diazabicyclo[4.2.0]octane]: the inhibition constant Ki at human orexin 1 receptor stood at 10 µM; on human orexin-2 receptor, 0.7 µM.

Consider `Cc1cc(C)nc(N2C[C@@H]3CCN(C(=O)c4cc(F)ccc4Br)C[C@@H]32)n1` [Example 164, (1R,6S)-3-[(2-Bromo-5-fluorophenyl)carbonyl]-8-(4,6-dimethylpyrimidin-2-yl)-3,8-diazabicyclo[4.2.0]octane], for which the results for the Ki on human orexin 1 receptor and at human orexin-2 receptor were 3.9 µM and 0.19 µM, respectively.

As for `Cc1cc(C)nc(N2C[C@@H]3CCN(C(=O)c4cc(F)ccc4-c4cncnc4)C[C@@H]32)n1` [Example 165, (1R,6S)-8-(4,6-Dimethylpyrimidin-2-yl)-3-[(5-fluoro-2-pyrimidin-5-ylphenyl)carbonyl]-3,8-diazabicyclo[4.2.0]octane], the Ki worked out at 10 µM on human orexin 1 receptor and 0.55 µM on human orexin-2 receptor.

Regarding `Cc1cc(C)nc(N2C[C@@H]3CCN(C(=O)c4cc(F)ccc4-c4ccc(N(C)C)nc4)C[C@@H]32)n1` [Example 166, 5-(2-{[(1R,6S)-8-(4,6-Dimethylpyrimidin-2-yl)-3,8-diazabicyclo[4.2.0]oct-3-yl]carbonyl}-4-fluorophenyl)-N,N-dimethylpyridin-2-amine], the inhibition constant Ki at human orexin 1 receptor is 3.84 µM; on human orexin-2 receptor, 0.072 µM.

`Cc1cc(C)nc(N2C[C@@H]3CCN(C(=O)c4cccc5c4-c4ccccc4C5)C[C@@H]32)n1` [Example 167, (1R,6S)-8-(4,6-Dimethylpyrimidin-2-yl)-3-(9H-fluoren-4-ylcarbonyl)-3,8-diazabicyclo[4.2.0]octane]: the inhibition constant Ki on human orexin 1 receptor came out at 0.219 µM; on human orexin-2 receptor it was 0.055 µM.

For the molecule `Cc1cc(C)nc(N2C[C@@H]3CCN(C(=O)c4cccc5c4-c4ccccc4C5=O)C[C@@H]32)n1` [Example 168, 4-{[(1R,6S)-8-(4,6-Dimethylpyrimidin-2-yl)-3,8-diazabicyclo[4.2.0]oct-3-yl]carbonyl}-9H-fluoren-9-one], the inhibition constant (Ki) is 7.3 µM on human orexin 1 receptor and 0.74 µM at human orexin-2 receptor.

For the molecule `Cc1cc(C)nc(N2C[C@@H]3CCN(C(=O)c4cc(F)ccc4-c4ccn[nH]4)C[C@@H]32)n1` [Example 171, (1R,6S)-8-(4,6-dimethylpyrimidin-2-yl)-3-{[5-fluoro-2-(1H-pyrazol-3-yl)phenyl]carbonyl}-3,8-diazabicyclo[4.2.0]octane], the Ki is 0.392 µM on human orexin 1 receptor and 0.015 µM on human orexin-2 receptor.

Take `Cc1cc(C)nc(N2C[C@@H]3CCN(C(=O)c4nc(C)sc4-c4ccc(F)cc4)C[C@@H]32)n1` [Example 173, (1R,6S)-8-(4,6-Dimethylpyrimidin-2-yl)-3-{[5-(4-fluorophenyl)-2-methyl-1,3-thiazol-4-yl]carbonyl}-3,8-diazabicyclo[4.2.0]octane]: the inhibition constant (Ki) on human orexin 1 receptor turned out to be 2.15 µM; at human orexin-2 receptor, 0.062 µM.

With `Cc1cc(C)nc(N2C[C@@H]3CCN(C(=O)c4cn[nH]c4-c4ccccc4)C[C@@H]32)n1` [Example 174, (1R,6S)-8-(4,6-Dimethylpyrimidin-2-yl)-3-[(5-phenyl-1H-pyrazol-4-yl)carbonyl]-3,8-diazabicyclo[4.2.0]octane], the inhibitory constant (Ki) on human orexin 1 receptor is 10 µM; at human orexin-2 receptor, 6 µM.

With `Cc1cc(C)nc(N2C[C@@H]3CCN(C(=O)c4c(-c5ccccc5)noc4C)C[C@@H]32)n1` [Example 175, (1R,6S)-8-(4,6-Dimethylpyrimidin-2-yl)-3-[(5-methyl-3-phenylisoxazol-4-yl)carbonyl]-3,8-diazabicyclo[4.2.0]octane], the Ki at human orexin 1 receptor came out at 10 µM; on human orexin-2 receptor, 0.488 µM.

For `Cc1cc(C)nc(N2C[C@@H]3CCN(C(=O)c4cnoc4-c4ccccc4)C[C@@H]32)n1` [Example 176, (1R,6S)-8-(4,6-Dimethylpyrimidin-2-yl)-3-[(5-phenylisoxazol-4-yl)carbonyl]-3,8-diazabicyclo[4.2.0]octane], the results for the Ki at human orexin 1 receptor and at human orexin-2 receptor were 10 µM and 1.3 µM, respectively.

Regarding `Cc1cc(C)nc(N2C[C@@H]3CCN(C(=O)c4ncoc4-c4ccccc4F)C[C@@H]32)n1` [Example 177, (1R,6S)-8-(4,6-Dimethylpyrimidin-2-yl)-3-{[5-(2-fluorophenyl)-1,3-oxazol-4-yl]carbonyl}-3,8-diazabicyclo[4.2.0]octane], the inhibitory constant (Ki) amounted to 2.4 µM at human orexin 1 receptor and 0.34 µM on human orexin-2 receptor.

Turning to `Cc1cc(C)nc(N2C[C@@H]3CCN(C(=O)c4ncoc4-c4cccc(Cl)c4)C[C@@H]32)n1` [Example 178, (1R,6S)-3-{[5-(3-Chlorophenyl)-1,3-oxazol-4-yl]carbonyl}-8-(4,6-dimethylpyrimidin-2-yl)-3,8-diazabicyclo[4.2.0]octane], the Ki amounted to 7 µM on human orexin 1 receptor and 0.126 µM at human orexin-2 receptor.

Turning to `Cc1cc(C)nc(N2C[C@@H]3CCN(C(=O)c4c(C)noc4-c4cc(C)on4)C[C@@H]32)n1` [Example 179, 4′-{[(1R,6S)-8-(4,6-Dimethylpyrimidin-2-yl)-3,8-diazabicyclo[4.2.0]oct-3-yl]carbonyl}-3′,5-dimethyl-3,5′-biisoxazole], the Ki at human orexin 1 receptor was found to be 10 µM; at human orexin-2 receptor it was 1.1 µM.

`Cc1cc(C)nc(N2C[C@@H]3CCN(C(=O)c4c(C)noc4-c4snnc4C)C[C@@H]32)n1` [Example 180, (1R,6S)-8-(4,6-Dimethylpyrimidin-2-yl)-3-{[3-methyl-5-(4-methyl-1,2,3-thiadiazol-5-yl)isoxazol-4-yl]carbonyl}-3,8-diazabicyclo[4.2.0]octane]: the inhibitory constant (Ki) at human orexin 1 receptor came to 10 µM; at human orexin-2 receptor, 6.5 µM.

Consider `Cc1cc(C)nc(N2C[C@@H]3CCN(C(=O)c4ncccc4Br)C[C@@H]32)n1` [Example 181, (1R,6S)-3-[(3-Bromopyridin-2-yl)carbonyl]-8-(4,6-dimethylpyrimidin-2-yl)-3,8-diazabicyclo[4.2.0]octane], for which the figures for the Ki on human orexin 1 receptor and at human orexin-2 receptor were 10 µM and 1.3 µM, respectively.

Consider `Cc1cc(C)nc(N2C[C@@H]3CCN(C(=O)c4ncccc4-n4ccnn4)C[C@@H]32)n1` [Example 182, (1R,6S)-8-(4,6-Dimethylpyrimidin-2-yl)-3-{[3-(1H-1,2,3-triazol-1-yl)pyridin-2-yl]carbonyl}-3,8-diazabicyclo[4.2.0]octane], for which the values for the Ki on human orexin 1 receptor and at human orexin-2 receptor were 10 µM and 1.5 µM, respectively.

Turning to `Cc1cc(C)nc(N2C[C@@H]3CCN(C(=O)c4ncccc4-n4nccn4)C[C@@H]32)n1` [Example 183, (1R,6S)-8-(4,6-Dimethylpyrimidin-2-yl)-3-{[3-(2H-1,2,3-triazol-2-yl)pyridin-2-yl]carbonyl}-3,8-diazabicyclo[4.2.0]octane], the Ki was 10 µM on human orexin 1 receptor and 0.2 µM on human orexin-2 receptor.

Regarding `Cc1cc(C)nc(N2C[C@@H]3CCN(C(=O)c4cccc(F)c4-c4cc[nH]n4)C[C@@H]32)n1` [Example 184, (1R,6S)-8-(4,6-Dimethylpyrimidin-2-yl)-3-{[3-fluoro-2-(1H-pyrazol-3-yl)phenyl]carbonyl}-3,8-diazabicyclo[4.2.0]octane], the inhibition constant (Ki) worked out at 0.156 µM on human orexin 1 receptor and 0.009 µM on human orexin-2 receptor.

In the case of `Cc1cc(C)nc(N2C[C@@H]3CCN(C(=O)c4cccc(F)c4-c4ncccn4)C[C@@H]32)n1` [Example 185, (1R,6S)-8-(4,6-Dimethylpyrimidin-2-yl)-3-[(3-fluoro-2-pyrimidin-2-ylphenyl)carbonyl]-3,8-diazabicyclo[4.2.0]octane], the Ki on human orexin 1 receptor was found to be 0.6 µM; at human orexin-2 receptor, 0.056 µM.

For `Cc1cc(N2C[C@@H]3CCN(C(=O)c4cc(F)ccc4-n4nccn4)C[C@@H]32)nc(N)n1` [Example 186, 4-[(1R,6S)-3-{[5-Fluoro-2-(2H-1,2,3-triazol-2-yl)phenyl]carbonyl}-3,8-diazabicyclo[4.2.0]oct-8-yl]-6-methylpyrimidin-2-amine], the Ki is 10 µM at human orexin 1 receptor and 0.68 µM on human orexin-2 receptor.

As to `CNc1nc(C)cc(N2C[C@@H]3CCN(C(=O)c4cc(F)ccc4-n4nccn4)C[C@@H]32)n1` [Example 187, 4-[(1R,6S)-3-{[5-Fluoro-2-(2H-1,2,3-triazol-2-yl)phenyl]carbonyl}-3,8-diazabicyclo[4.2.0]oct-8-yl]-N,6-dimethylpyrimidin-2-amine], the Ki on human orexin 1 receptor was 10 µM; at human orexin-2 receptor, 0.31 µM.

Take `Cc1cc(C)nc(N2C[C@@H]3CCN(C(=O)c4cc(F)ccc4-c4ccn(C)n4)C[C@@H]32)n1` [Example 188, (1R,6S)-8-(4,6-Dimethylpyrimidin-2-yl)-3-{[5-fluoro-2-(1-methyl-1H-pyrazol-3-yl)phenyl]carbonyl}-3,8-diazabicyclo[4.2.0]octane]: the Ki was 1.3 µM at human orexin 1 receptor and 0.035 µM on human orexin-2 receptor.

For `CN(C)c1cc(N2C[C@@H]3CCN(C(=O)c4cc(F)ccc4-n4nccn4)C[C@@H]32)ncn1` [Example 189, 6-[(1R,6S)-3-{[5-Fluoro-2-(2H-1,2,3-triazol-2-yl)phenyl]carbonyl}-3,8-diazabicyclo[4.2.0]oct-8-yl]-N,N-dimethylpyrimidin-4-amine], the figures for the inhibition constant Ki on human orexin 1 receptor and at human orexin-2 receptor were 4.1 µM and 0.11 µM, respectively.
